Active and inactive are the calls of the source. The rule behind the calls is not given here.
Columns and labels:
[1] = Cmax in fasted BALB/c mouse at 20 mg/kg, iv administered upto 600 mins by HPLC-MS/MS analysis; format: ADME, organism-based; set-up: time < 600 min, dose 20 mg/kg, route iv; conditions: in vivo
[2] = target: T1, Histone-lysine N-methyltransferase, H3 lysine-79 specific (Homo sapiens, UniProt Q8TEK3); assay: Inhibition of human DOT1L by hotspot PMT activity assay
Target sequence in this assay (Q8TEK3 whole entry): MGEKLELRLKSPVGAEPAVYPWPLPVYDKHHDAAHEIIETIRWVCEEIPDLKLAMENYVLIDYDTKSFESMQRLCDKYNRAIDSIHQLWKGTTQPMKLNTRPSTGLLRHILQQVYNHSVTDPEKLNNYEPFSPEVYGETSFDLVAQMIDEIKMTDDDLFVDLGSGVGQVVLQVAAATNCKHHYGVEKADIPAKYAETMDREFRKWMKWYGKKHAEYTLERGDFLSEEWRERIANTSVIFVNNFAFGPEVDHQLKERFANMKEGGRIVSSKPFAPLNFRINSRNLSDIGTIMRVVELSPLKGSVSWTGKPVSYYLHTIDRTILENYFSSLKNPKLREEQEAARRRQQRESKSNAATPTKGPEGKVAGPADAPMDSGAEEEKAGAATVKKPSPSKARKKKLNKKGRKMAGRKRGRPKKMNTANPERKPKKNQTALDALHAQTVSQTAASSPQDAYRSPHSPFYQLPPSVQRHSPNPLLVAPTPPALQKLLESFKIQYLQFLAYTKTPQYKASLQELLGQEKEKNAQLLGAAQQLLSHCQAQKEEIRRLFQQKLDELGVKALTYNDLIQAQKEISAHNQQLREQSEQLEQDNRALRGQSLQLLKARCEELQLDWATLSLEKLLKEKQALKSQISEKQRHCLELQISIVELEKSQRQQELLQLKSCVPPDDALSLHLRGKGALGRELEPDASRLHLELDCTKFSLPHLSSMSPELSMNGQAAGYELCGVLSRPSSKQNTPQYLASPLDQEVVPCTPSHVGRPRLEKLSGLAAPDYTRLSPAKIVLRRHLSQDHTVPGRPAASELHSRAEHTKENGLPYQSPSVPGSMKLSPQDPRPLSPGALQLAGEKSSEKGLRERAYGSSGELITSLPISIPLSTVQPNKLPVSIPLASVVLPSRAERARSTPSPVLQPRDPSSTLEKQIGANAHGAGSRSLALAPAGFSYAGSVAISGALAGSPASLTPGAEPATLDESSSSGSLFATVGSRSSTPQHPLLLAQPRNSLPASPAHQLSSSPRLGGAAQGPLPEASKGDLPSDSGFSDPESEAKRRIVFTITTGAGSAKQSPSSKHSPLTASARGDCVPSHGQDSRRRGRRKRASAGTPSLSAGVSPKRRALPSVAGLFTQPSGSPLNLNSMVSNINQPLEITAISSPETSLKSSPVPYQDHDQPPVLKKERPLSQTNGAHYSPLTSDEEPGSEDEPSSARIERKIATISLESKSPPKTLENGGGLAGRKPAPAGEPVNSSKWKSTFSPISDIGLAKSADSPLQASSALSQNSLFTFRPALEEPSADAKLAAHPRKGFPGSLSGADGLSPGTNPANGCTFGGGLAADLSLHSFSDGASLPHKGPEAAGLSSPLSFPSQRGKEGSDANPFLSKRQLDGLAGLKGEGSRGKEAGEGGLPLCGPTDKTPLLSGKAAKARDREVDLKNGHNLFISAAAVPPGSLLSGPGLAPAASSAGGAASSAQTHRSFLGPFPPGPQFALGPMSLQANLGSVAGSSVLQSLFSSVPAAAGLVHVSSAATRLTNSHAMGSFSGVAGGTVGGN

[3] = Clearance in fasted BALB/c mouse at 5 mg/kg, iv administered upto 600 mins by HPLC-MS/MS analysis; format: ADME, organism-based; conditions: in vivo
[4] = Volume of distribution in fasted BALB/c mouse at 5 mg/kg, iv administered upto 600 mins by HPLC-MS/MS analysis; format: ADME, organism-based; conditions: in vivo
[5] = Tmax in fasted BALB/c mouse at 5 mg/kg, iv administered upto 600 mins by HPLC-MS/MS analysis; format: ADME, organism-based; conditions: in vivo
[6] = Elimination rate constant in fasted BALB/c mouse at 5 mg/kg, iv administered upto 600 mins by HPLC-MS/MS analysis; format: ADME, organism-based; conditions: in vivo
[7] = Half life in fasted BALB/c mouse at 20 mg/kg, iv administered upto 600 mins by HPLC-MS/MS analysis; format: ADME, organism-based; conditions: in vivo
[8] = Tmax in fasted BALB/c mouse at 20 mg/kg, iv administered upto 600 mins by HPLC-MS/MS analysis; format: ADME, organism-based; conditions: in vivo
MOLM-13 [9] = assay: Cytotoxicity against human MOLM-13 cells assessed as metabolic activity at 1 to 40 uM incubated for 10 to 15 days by WST-1 assay; format: functional, cell-based; conditions: dose 1-40 µM, time 10-15 day
SU-DHL-5 = assay: Cytotoxicity against human SU-DHL-5 cells assessed as reduction of cell viability up to 10 uM incubated for 72 hrs by celltiter-glo assay; format: functional, cell-based; conditions: SU-DHL-5, 72 h
[10] = Half life in fasted BALB/c mouse at 5 mg/kg, iv administered upto 600 mins by HPLC-MS/MS analysis; format: ADME, organism-based; conditions: in vivo
[11] = AUC (0 to t) in fasted BALB/c mouse at 5 mg/kg, iv administered upto 600 mins by HPLC-MS/MS analysis; format: ADME, organism-based; set-up: time < 600 min, dose 5 mg/kg, route iv; conditions: in vivo
MOLM-13 [12] = assay: Cytotoxicity against human MOLM-13 cells assessed as reduction of cell viability up to 10 uM incubated for 72 hrs by celltiter-glo assay; format: functional, cell-based; conditions: MOLM-13, 72 h
[13] = target: T1, Histone-lysine N-methyltransferase, H3 lysine-79 specific; assay: Binding affinity to human DOT1L assessed as binding free energy difference
Target sequence in this assay (Q8TEK3 whole entry, looked up): as the sequence (Q8TEK3 whole entry) above

[14] = Clearance in fasted BALB/c mouse at 20 mg/kg, iv administered upto 600 mins by HPLC-MS/MS analysis; format: ADME, organism-based; conditions: in vivo
MOLM-13 [15] = assay: Downregulation of HOXA9 gene in human MOLM-13 cells at 10 uM measured after 3 to 10 days by qPCR analysis; format: functional, cell-based; conditions: time 3-10 day
MOLM-13 [16] = assay: Cytotoxicity against human MOLM-13 cells assessed as reduction of cell viability at 20 to 40 uM incubated for 5 to 15 days by DiOC6/ propidium staining based flow cytometry analysis; format: functional; conditions: dose 20-40 µM, time 5-15 day
[17] = Elimination rate constant in fasted BALB/c mouse at 20 mg/kg, iv administered upto 600 mins by HPLC-MS/MS analysis; format: ADME, organism-based; conditions: in vivo
[18] = target: T1, Histone-lysine N-methyltransferase, H3 lysine-79 specific; assay: Inhibition of DOT1L in human MOLM-13 cells assessed as decrease in H3K79 methylation at 1 to 10 uM using histone H3 as substrate incubated for 3 days by immunoblotting assay; format: cell-based; conditions: dose 1-10 µM, time 3.0 day, DDE = dose-dependent effect
Target sequence in this assay (Q8TEK3 whole entry, looked up): as the sequence (Q8TEK3 whole entry) above

[19] = target: T1, Histone-lysine N-methyltransferase, H3 lysine-79 specific; assay: Inhibition of DOT1L in human SU-DHL-4 cells assessed as decrease in H3K79 methylation at 1 to 10 uM using histone H3 as substrate incubated for 3 days by immunoblotting assay; format: cell-based; conditions: dose 1-10 µM, time 3.0 day, DDE = dose-dependent effect
Target sequence in this assay (Q8TEK3 whole entry, looked up): as the sequence (Q8TEK3 whole entry) above

SUD4 = assay: Cytotoxicity against human SU-DHL-4 cells assessed as reduction of cell viability at 20 to 40 uM incubated for 5 to 15 days by DiOC6/ propidium staining based flow cytometry analysis; format: functional; conditions: dose 20-40 µM, time 5-15 day
[20] = AUC (0 to infinity) in fasted BALB/c mouse at 5 mg/kg, iv administered upto 600 mins by HPLC-MS/MS analysis; format: ADME, organism-based; set-up: dose 5 mg/kg, time < 600 min, route iv; conditions: in vivo
[21] = Cmax in fasted BALB/c mouse at 5 mg/kg, iv administered upto 600 mins by HPLC-MS/MS analysis; format: ADME, organism-based; set-up: time < 600 min, dose 5 mg/kg, route iv; conditions: in vivo
[22] = Metabolic stability in BALB/c mouse liver microsomes assessed as parent compound remaining measured after 40 mins; format: ADME, Microsome; conditions: read-out: Stability
[23] = Volume of distribution in fasted BALB/c mouse at 20 mg/kg, iv administered upto 600 mins by HPLC-MS/MS analysis; format: ADME, organism-based; conditions: in vivo
[24] = target: T1, Histone-lysine N-methyltransferase, H3 lysine-79 specific; assay: Inhibition of DOT1L in human OCI-AML5 cells assessed as decrease in H3K79 methylation at 1 to 10 uM using histone H3 as substrate incubated for 5 days by immunoblotting assay; format: cell-based; conditions: dose 1-10 µM, time 5.0 day, DDE = dose-dependent effect
Target sequence in this assay (Q8TEK3 whole entry, looked up): as the sequence (Q8TEK3 whole entry) above

[25] = target: T1, Histone-lysine N-methyltransferase, H3 lysine-79 specific; assay: Inhibition of DOT1L in human OCI-AML5 cells assessed as decrease in H3K79 methylation at 1 to 10 uM using histone H3 as substrate incubated for 3 days by immunoblotting assay; format: cell-based; conditions: dose 1-10 µM, time 3.0 day, DDE = dose-dependent effect
Target sequence in this assay (Q8TEK3 whole entry, looked up): as the sequence (Q8TEK3 whole entry) above

[26] = Acute toxicity in BALB/c mouse at 20 mg/kg,iv; format: organism-based; conditions: in vivo
[27] = target: T1, Histone-lysine N-methyltransferase, H3 lysine-79 specific; assay: Inhibition of DOT1L in human MOLM-13 cells assessed as decrease in H3K79 methylation at 1 to 10 uM using histone H3 as substrate incubated for 5 days by immunoblotting assay; format: cell-based; conditions: dose 1-10 µM, time 5.0 day, DDE = dose-dependent effect
Target sequence in this assay (Q8TEK3 whole entry, looked up): as the sequence (Q8TEK3 whole entry) above

OCI-AML-3 [28] = assay: Cytotoxicity against human OCI-AML-3 cells assessed as reduction of cell viability at 20 to 40 uM incubated for 5 to 15 days by DiOC6/ propidium staining based flow cytometry analysis; format: functional; conditions: dose 20-40 µM, time 5-15 day
MV4-11 = assay: Cytotoxicity against human MV4-11 cells assessed as reduction of cell viability up to 10 uM incubated for 72 hrs by celltiter-glo assay; format: functional, cell-based; conditions: MV4-11, 72 h
[29] = Microsomal stability in BALB/c mouse liver microsomes assessed as intrinsic clearance; format: ADME, Microsome; conditions: read-out: CLH
MOLM-13 [30] = assay: Downregulation of MEIS1 gene in human MOLM-13 cells at 10 uM measured after 3 to 10 days by qPCR analysis; format: functional, cell-based; conditions: time 3-10 day
[31] = AUC (0 to infinity) in fasted BALB/c mouse at 20 mg/kg, iv administered upto 600 mins by HPLC-MS/MS analysis; format: ADME, organism-based; set-up: dose 20 mg/kg, time < 600 min, route iv; conditions: in vivo
SK-N-MC = assay: Cytotoxicity against human SK-N-MC cells assessed as reduction of cell viability up to 10 uM incubated for 72 hrs by celltiter-glo assay; format: functional, cell-based
[32] = AUC (0 to t) in fasted BALB/c mouse at 20 mg/kg, iv administered upto 600 mins by HPLC-MS/MS analysis; format: ADME, organism-based; set-up: dose 20 mg/kg, time < 600 min, route iv; conditions: in vivo
[33] = target: T1, Histone-lysine N-methyltransferase, H3 lysine-79 specific; assay: Inhibition of DOT1L in human SU-DHL-4 cells assessed as decrease in H3K79 methylation at 1 to 10 uM using histone H3 as substrate incubated for 5 days by immunoblotting assay; format: cell-based; conditions: dose 1-10 µM, time 5.0 day, DDE = dose-dependent effect
OCI-AML-3 [34] = assay: Cytotoxicity against human OCI-AML-3 cells assessed as reduction of cell viability at 1 to 40 uM incubated for 5 to 15 days by WST-1 assay; format: functional, cell-based; conditions: dose 1-40 µM, time 5-15 day
[35] = Cmax in fasted BALB/c mouse at 20 mg/kg, po administered upto 600 mins by HPLC-MS/MS analysis; format: ADME, organism-based; set-up: time < 600 min, dose 20 mg/kg, route po; conditions: in vivo
[36] = AUC (0 to t) in fasted BALB/c mouse at 20 mg/kg, po administered upto 600 mins by HPLC-MS/MS analysis; format: ADME, organism-based; set-up: dose 20 mg/kg, time < 600 min, route po; conditions: in vivo
[37] = Acute toxicity in BALB/c mouse at 10 to 20 mg/kg,iv; format: organism-based; conditions: in vivo, dose 10-20 mg/kg
OCI-AML-3 [38] = assay: Cytotoxicity against human OCI-AML-3 cells assessed as reduction of cell viability at 1 to 40 uM incubated for 5 to 15 days by DiOC6/ propidium staining based flow cytometry analysis; format: functional; conditions: dose 1-40 µM, time 5-15 day
[39] = Acute toxicity in BALB/c mouse assessed as respiratory failure at 5 mg/kg,iv measured after 6 to 7 mins; format: organism-based; conditions: in vivo, time 6-7 min
MOLM-13 [40] = assay: Cytotoxicity against human MOLM-13 cells assessed as reduction of cell viability at 1 to 40 uM incubated for 5 to 15 days by DiOC6/ propidium staining based flow cytometry analysis; format: functional; conditions: dose 1-40 µM, time 5-15 day
MOLM-13 [41] = assay: Cytotoxicity against human MOLM-13 cells assessed as metabolic activity at 1 to 40 uM incubated for 5 to 15 days by WST-1 assay; format: functional, cell-based; conditions: dose 1-40 µM, time 5-15 day
[42] = Acute toxicity in BALB/c mouse assessed as death at 10 to 20 mg/kg,iv; format: organism-based; conditions: in vivo, dose 10-20 mg/kg
[43] = Acute toxicity in BALB/c mouse assessed as mild tremor at 5 mg/kg,iv measured after 6 to 7 mins; format: organism-based; conditions: in vivo, time 6-7 min
[44] = Tmax in fasted BALB/c mouse at 20 mg/kg, po administered upto 600 mins by HPLC-MS/MS analysis; format: ADME, organism-based; conditions: in vivo

`CC(C)N(C[C@H]1C[C@@H](c2ccc3c(N)ncnn23)[C@H](O)[C@@H]1O)[C@H]1C[C@@H](CCc2nc3cc(C(C)(C)C)ccc3[nH]2)C1` showed a Cmax [1] of 91200 ng/mL, an IC50 [2] of 0.0021 µM and a clearance [3] of 14.2 mL/min/kg. The Vd [4] was 1.18 L/kg, the Tmax [5] was 5 min and the k el at 10 h ([6]; BALB/c) was 0.000202 s⁻¹. For the same molecule, the half-life [7] was 93.6 min, the Tmax [8] was 5 min and the Activity (MOLM-13 [9]) was “Active”. For the same molecule, the EC50 (SU-DHL-5) was 9 µM, the half-life ([10]; BALB/c) was 57.2 min and the AUC(0-t) at 10 h [11] was 5800 ng·h/mL. The EC50 (MOLM-13 [12]) was 7.7 µM, the deltaG [13] was -0.717 kcal/mol and the clearance [14] was 9.54 mL/min/kg. The Activity (MOLM-13 [15]) was “Active”, the Activity (MOLM-13 [16]) was “Active” and the k el at 10 h [17] was 0.000123 s⁻¹. For the same molecule, the Activity [18] was “Dde”, the Activity [19] was “Dde” and the Activity (SUD4) was “Active”. For the same molecule, the AUC(0-inf) [20] was 5850 ng·h/mL, the Cmax [21] was 20600 ng/mL and the remaining at 40 min [22] was 41%. The Vd [23] was 1.29 L/kg, the Activity [24] was “Dde” and the Activity [25] was “Dde”. For the same molecule, the Activity [26] was “Non-Toxic”, the Activity [27] was “Dde” and the Activity (OCI-AML-3 [28]) was “Active”. The EC50 (MV4-11) was 1.7 µM, the microsomal CLint [29] was 56 µL/min/mg and the Activity (MOLM-13 [30]) was “Active”. It also gave an AUC(0-inf) [31] of 35000 ng·h/mL, an EC50 (SK-N-MC) of 8.8 µM and an AUC(0-t) at 10 h [32] of 34700 ng·h/mL. The Activity [33] was “Dde”.
In the case of `CC(C)N(C[C@H]1O[C@@H](n2cnc3c(N)ncnc32)[C@H](O)[C@@H]1O)[C@H]1C[C@@H](CCc2nc3cc(C(C)(C)C)ccc3[nH]2)C1` [PINOMETOSTAT], the Activity (OCI-AML-3 [34]) is reported as “Active”, the Cmax [35] is reported as 15.9 ng/mL and the clearance [3] is reported as 17.1 mL/min/kg. For the same molecule, the Vd [4] was 1.07 L/kg, the AUC(0-t) at 10 h [36] was 0.662 ng·h/mL and the Tmax [5] was 5 min. The Activity [37] was “Toxic”, the Kel ([6]; iv, 5 mg/kg, 10 h) was 0.00161 min⁻¹ and the Activity (OCI-AML-3 [38]) was “Active”. For the same molecule, the Activity [39] was “Toxic”, the t1/2 ([10]; iv, 5 mg/kg, 10 h) was 43.2 min and the AUC(0-t) at 10 h [11] was 4830 ng·h/mL. For the same molecule, the Activity [18] was “Dde”, the Activity [19] was “Dde” and the AUC(0-inf) [20] was 4870 ng·h/mL. The Cmax [21] was 13900 ng/mL, the Activity (MOLM-13 [40]) was “Active” and the Activity [24] was “Dde”. For the same molecule, the Activity (MOLM-13 [41]) was “Active”, the Activity [25] was “Dde” and the Activity [42] was “Toxic”. The Activity [27] was “Dde”, the Activity [43] was “Toxic” and the Tmax [44] was 5 min. The Activity [33] was “Dde”.
